Assay results reported in US9234004B2, “Antimicrobial peptides” (Agency for Science, Technology and Research, priority 2010, dated 2016).
In brackets after ≈: the same amount, converted by molar mass. Like-named read-outs stand apart in the source and are kept apart here. Bridge positions count the residues as written; N and C are the ends. Ends that are not written are not given here. Peptide text beside a SMILES is read from it. I, II: the chains in the order shown.

What was measured:
Assay type in all cases: cell-based
[1] = tested on: human red blood cells (hRBC)
Protocol: The peptides' hemolysis was tested in human red blood cells (hRBC). hRBCs were diluted 25× to achieve 4% concentration (v %) in phosphate-buffered saline (PBS, pH 7.4). Upon dilution, the blood suspension was treated with equal volume of (LLKK)4 (SEQ ID NO: 8), [(LLKK)2]2, or [(LLKK)2]4 peptide solution in PBS to reach final peptide concentrations of 0-500 mg/L. The treatment was performed inside a 37° C. incubator for 1 hour, after which the mixture was centrifuged at 1000 g for 5 mins to remove the non-hemolysed blood cells. The supernatant (100 μL) was transferred into a 96-well plate, and measured spectrophotometrically for its absorbance at 567 nm using a microplate reader (TECAN, Switzerland)^[5]. PBS and 0.1% Triton-X were used as negative and positive controls respectively. Hemolysis level was calculated according to the following formula: % Hemolytic=(Absorbance for Peptide treatment−Absorbance for PBS treatment)/(Absorbance for Triton treatment−Absorbance for PBS treatment)×100% Minimum Inhibitory Concentration (MIC)

[2] = tested on: C. albicans (ATCC No. 10231); conditions: ATCC No. 10231, 18 h
Protocol: (§1) Microbes were re-constituted from their dried pellets obtained from ATCC according to the recommended protocols. Bacterial culture was done in tryptic soy broth at 37° C., while yeast was cultured in yeast mould broth at room temperature, under constant shaking at 100 rpm. Briefly, microbial suspension was first adjusted to contain ˜3×10^8 CFU/mL, by adjusting its 600 nm absorbance to be equivalent to that of the standard McFarland 1 reference. The suspension was then diluted to contain ˜3×10^6 CFU/mL. Under this condition, the O.D. reading was approximately 0.05-0.06 for bacterial cultures, and 0.03-0.04 for yeast cultures. Equal volume (100 μL) of the microbial suspension and the peptide solutions was mixed in a 96-well plate, and the microbial growth was monitored by measuring the O.D. reading at 0 and 18 hours.

E. coli (ATCC No. 25922) = conditions: ATCC No. 25922, 18 h
Protocol: as §1

[3] = tested on: S. aureus (ATCC No. 29737); conditions: ATCC No. 29737, 18 h
Protocol: as §1

[4] = tested on: E. aerogenes (ATCC No. 13048); conditions: ATCC No. 13048, 18 h
Protocol: as §1

[5] = tested on: B. subtilis (ATCC No. 23857); conditions: ATCC No. 23857, 18 h
Protocol: as §1

[6] = tested on: P. aeruginosa (ATCC No. 9027); conditions: ATCC No. 9027, 18 h
Protocol: as §1

E. coli [7] = conditions: 2
Protocol: (§2) E. coli and S. aureus were treated at MIC and 2×MIC concentrations with [(LLKK)2]4 peptide. At various time periods (0, 0.5, 1, 2, 5, 8 and 18 hours), microbial suspensions were diluted at 3 different dilutions and plated on 1.5% LB agar plates. Microbial colonies were formed and counted after 24 hours of incubation (for bacteria) or 48 hours of incubation (for yeast).

S. aureus = conditions: 2
Protocol: as §2

rat red blood cells = assay: Hemolytic activity test
Protocol: Peptides were obtained from GL Biochem (Shanghai, China), and their fidelity was further confirmed via matrix-assisted laser desorption/ionization time-of-flight mass spectroscopy (MALDI-TOF MS, Model Autoflex II, Bruker Daltonics Inc., U.S.A.), using α-cyano-4-hydroxycinnamic acid as matrix. The purity of the peptides was also tested to be more than 95% with analytical reverse phase (RP)-HPLC. α-Cyano-4-hydroxycinnamic acid (HCCA) was purchased from Sigma-Aldrich (Singapore) and used in saturated acetonitrile/water (1:1 volume ratio) after being re-crystallized. Sodium dodecyl sulphate (SDS) micelle solution (10% w/v in DI water) was obtained from 1st Base (Malaysia) and used upon dilution to the desirable concentration range. Tryptic soy broth (TSB) powder and yeast mould broth (YMB) powder were purchased from BD Diagnostics (Singapore) and used to prepare the microbial broths according to the manufacturer's instructions. Phosphate-buffered saline solution at 10× concentration was purchased from 1st Base (Malaysia) and used after dilution to the desired concentration. Ethanol (analytical grade, 99%) and glutaraldehyde (synthetic grade, 50% in H2O) were purchased from Sigma Aldrich (Singapore) and used as received. […] Red blood cells used in the experiments were obtained from rats maintained at the Animal Handling Units of the Biomedical Research Centers (Singapore). Human peripheral blood mononuclear cells (PBMCs) were extracted from healthy blood donors and maintained with RPMI medium supplemented with 10% lowendotoxin fetal bovine serum (FBS) and 1% penicillin-streptomycin. Granulocyte macrophage-colony stimulating factor (GM-CSF) and lipopolysaccharide were purchased from Sigma-Aldrich and used as received.
Fresh red blood cells were washed with PBS for three times, and were subjected to 25 times dilution with PBS to reach a concentration of approximately 4% (in volume) of the blood cells. The red blood cell suspension (100 μL) was placed into a 96-well cell culture plate and mixed with 100 μL of the antimicrobial peptide solution in PBS at concentrations of 0.98, 1.95, 3.90, 7.81, 15.63, 31.25, 62.5, 125, 250, 500 mg/L. The mixture was then incubated at 37° C. for 1 hour to allow for the hemolysis process to take place. At the end of incubation time, the non-hemolysed red blood cells were separated by centrifugation at 13000 g for 5 minutes. Aliquots (100 μL) of the supernatant were transferred into a new 96-well plate, and the hemoglobin release was measured by checking the UV-absorbance of the samples at 576 nm using a microplate reader (TECAN, Switzerland). Two controls were provided in this assay: an untreated red blood cell suspension in PBS was used as the negative control, and a solution containing red blood cells lysed with 0.1% Triton-X was used as the positive control. Each assay was performed in 6 replicates, and the data were expressed as means and standard deviations of the 6 replicates. Percentage of hemolysis was calculated using the following formula: Hemolysis (%)=[(O.D.576 nm of the treated sample−O.D.576 nm of the negative control)/(O.D.576 nm of positive control−O.D.576 nm of negative control)]×100%. Field Emission-Scanning Electron Microscopy (FE-SEM) Analysis of Bacterial Cells

E. coli [8] = conditions: 8 h
Protocol: (§3) Microbial cells were firstly re-constituted from its lyophilized form according to the manufacturer's protocol. Bacterial cells were cultured in tryptic soy broth (TSB) at 37° C., and yeast cells were cultured in yeast mould broth (YMB) at room temperature under constant shaking at 100 rpm. Broth containing an antimicrobial peptide was prepared at various concentrations (0.98, 1.95, 3.90, 7.81, 15.63, 31.25, 62.5, 125, 250, 500 mg/L) and transferred into a 96-well tissue culture plate (100 μL/well). Microorganism was first inoculated overnight to enter its log growth-phase. An equal volume of microorganism solution (100 μL) was added into each well of the 96-well plate containing the antimicrobial peptide. Prior to this mixing, the concentration of microorganism solution was adjusted to give an initial optical density (O.D.) reading of 0.1-0.2 at 600 nm wavelength. The growth of the microorganism was observed upon introducing the antimicrobial peptide by measuring the O.D. readings at 2 hour intervals for up to 8 hours. […] Broth containing microbial cells was used as the negative control, and each test was carried out in 6 replicates. The standard deviations of the 6 readings were reported as the error bars.

B. subtilis = conditions: 8 h
Protocol: as §3

C. albicans = conditions: 8 h
Protocol: as §3

Compound	hemolysis at 500 mg/L ([1]; red cells of human, 500) [%]	HC50 ([1]; red cells of human, 1 h) [mg/L]	MIC C. albicans [2] [µg/mL]	MIC E. coli (E. coli (ATCC No. 25922)) [µg/mL]	MIC S. aureus [3] [µg/mL]	MIC E. aerogenes [4] [µg/mL]	MIC B. subtilis [5] [µg/mL]	MIC P. aeruginosa [6] [µg/mL]	hemolytic activity towards human red blood cells, in words [1]	cells killed after 1 hour (E. coli [7]; 1 h)	cells killed after 8 hours (E. coli [7]; 8 h)	cells killed after 1 hour (S. aureus; 1 h)	cells killed after 8 hours (S. aureus; 8 h)	HC50 [1] [mg/L]	hemolysis at the MIC against B. subtilis (rat red blood cells) [%]	HC50 (50% hemolytic concentration) (rat red blood cells; red cells of rat, 1 h) [mg/L]	MIC E. coli (E. coli [8]) [µg/mL]	MIC B. subtilis (B. subtilis) [µg/mL]	MIC C. albicans (C. albicans) [µg/mL]
CC(C)C[C@H](NC(=O)[C@H](CC(C)C)NC(=O)[C@H](CCCCN)NC(=O)[C@H](CCCCN)NC(=O)[C@H](CC(C)C)NC(=O)[C@@H](N)CC(C)C)C(=O)N[C@@H](CCCCN)C(=O)N[C@@H](CCCCN)C(=O)NCCCC[C@H](NC(=O)[C@H](CCCCN)NC(=O)[C@H](CCCCN)NC(=O)[C@H](CC(C)C)NC(=O)[C@H](CC(C)C)NC(=O)[C@H](CCCCN)NC(=O)[C@H](CCCCN)NC(=O)[C@H](CC(C)C)NC(=O)[C@@H](N)CC(C)C)C(=O)N[C@@H](CS)C(N)=O [[(LLKK)2]2, [LLKKLLKK]2K*C—CONH2] (I: H-LLKKLLKKKC-NH2 / II: H-LLKKLLKK; amide I:9-II:C)	~18	>500	63 (≈ 28.9 µM)	31 (≈ 14.2 µM)	>500	125 (≈ 57.4 µM)	8 (≈ 3.67 µM)	8 (≈ 3.67 µM)	–	–	–	–	–	–	–	–	–	–	–
CC(C)C[C@H](NC(=O)[C@H](CC(C)C)NC(=O)[C@H](CCCCN)NC(=O)[C@H](CCCCN)NC(=O)[C@H](CC(C)C)NC(=O)[C@@H](N)CC(C)C)C(=O)N[C@@H](CCCCN)C(=O)N[C@@H](CCCCN)C(=O)NCCCC[C@H](NC(=O)[C@H](CCCCN)NC(=O)[C@H](CCCCN)NC(=O)[C@H](CC(C)C)NC(=O)[C@H](CC(C)C)NC(=O)[C@H](CCCCN)NC(=O)[C@H](CCCCN)NC(=O)[C@H](CC(C)C)NC(=O)[C@@H](N)CC(C)C)C(=O)N[C@@H](CSSC[C@H](NC(=O)[C@H](CCCCNC(=O)[C@H](CCCCN)NC(=O)[C@H](CCCCN)NC(=O)[C@H](CC(C)C)NC(=O)[C@H](CC(C)C)NC(=O)[C@H](CCCCN)NC(=O)[C@H](CCCCN)NC(=O)[C@H](CC(C)C)NC(=O)[C@@H](N)CC(C)C)NC(=O)[C@H](CCCCN)NC(=O)[C@H](CCCCN)NC(=O)[C@H](CC(C)C)NC(=O)[C@H](CC(C)C)NC(=O)[C@H](CCCCN)NC(=O)[C@H](CCCCN)NC(=O)[C@H](CC(C)C)NC(=O)[C@@H](N)CC(C)C)C(N)=O)C(N)=O [[(LLKK)2]4, [LLKKLLKK]2K*C—S—S—CK*[KKLLKKLL]2] (I: H-LLKKLLKKKC-NH2 / II: H-LLKKLLKKKC-NH2 / III: H-LLKKLLKK / IV: H-LLKKLLKK; amide I:9-III:C, II:9-IV:C; disulfide I:10-II:10)	–	>500	125 (≈ 28.7 µM)	–	400 (≈ 91.8 µM)	63 (≈ 14.5 µM)	16 (≈ 3.67 µM)	8 (≈ 1.84 µM)	only hemolytic at an acceptable level	more than 50%	more than 99.99%	more than 50%	more than 99.99%	–	–	–	–	–	–
LLKKLLKKLLKKLLKK-NH2 [(LLKK)4, LLKKLLKKLLKKLLKK-NH2]	–	–	>50	12.5	>50	25	6.3	6.3	significant hemolysis at concentrations around its MICs	–	–	–	–	~37.5	~30	~24	>50	10	>50
